Target: N-type calcium channel (Rattus norvegicus, UniProt Q02294)
Type: binding

N-type calcium channel, sequence (Q02294 whole entry, looked up): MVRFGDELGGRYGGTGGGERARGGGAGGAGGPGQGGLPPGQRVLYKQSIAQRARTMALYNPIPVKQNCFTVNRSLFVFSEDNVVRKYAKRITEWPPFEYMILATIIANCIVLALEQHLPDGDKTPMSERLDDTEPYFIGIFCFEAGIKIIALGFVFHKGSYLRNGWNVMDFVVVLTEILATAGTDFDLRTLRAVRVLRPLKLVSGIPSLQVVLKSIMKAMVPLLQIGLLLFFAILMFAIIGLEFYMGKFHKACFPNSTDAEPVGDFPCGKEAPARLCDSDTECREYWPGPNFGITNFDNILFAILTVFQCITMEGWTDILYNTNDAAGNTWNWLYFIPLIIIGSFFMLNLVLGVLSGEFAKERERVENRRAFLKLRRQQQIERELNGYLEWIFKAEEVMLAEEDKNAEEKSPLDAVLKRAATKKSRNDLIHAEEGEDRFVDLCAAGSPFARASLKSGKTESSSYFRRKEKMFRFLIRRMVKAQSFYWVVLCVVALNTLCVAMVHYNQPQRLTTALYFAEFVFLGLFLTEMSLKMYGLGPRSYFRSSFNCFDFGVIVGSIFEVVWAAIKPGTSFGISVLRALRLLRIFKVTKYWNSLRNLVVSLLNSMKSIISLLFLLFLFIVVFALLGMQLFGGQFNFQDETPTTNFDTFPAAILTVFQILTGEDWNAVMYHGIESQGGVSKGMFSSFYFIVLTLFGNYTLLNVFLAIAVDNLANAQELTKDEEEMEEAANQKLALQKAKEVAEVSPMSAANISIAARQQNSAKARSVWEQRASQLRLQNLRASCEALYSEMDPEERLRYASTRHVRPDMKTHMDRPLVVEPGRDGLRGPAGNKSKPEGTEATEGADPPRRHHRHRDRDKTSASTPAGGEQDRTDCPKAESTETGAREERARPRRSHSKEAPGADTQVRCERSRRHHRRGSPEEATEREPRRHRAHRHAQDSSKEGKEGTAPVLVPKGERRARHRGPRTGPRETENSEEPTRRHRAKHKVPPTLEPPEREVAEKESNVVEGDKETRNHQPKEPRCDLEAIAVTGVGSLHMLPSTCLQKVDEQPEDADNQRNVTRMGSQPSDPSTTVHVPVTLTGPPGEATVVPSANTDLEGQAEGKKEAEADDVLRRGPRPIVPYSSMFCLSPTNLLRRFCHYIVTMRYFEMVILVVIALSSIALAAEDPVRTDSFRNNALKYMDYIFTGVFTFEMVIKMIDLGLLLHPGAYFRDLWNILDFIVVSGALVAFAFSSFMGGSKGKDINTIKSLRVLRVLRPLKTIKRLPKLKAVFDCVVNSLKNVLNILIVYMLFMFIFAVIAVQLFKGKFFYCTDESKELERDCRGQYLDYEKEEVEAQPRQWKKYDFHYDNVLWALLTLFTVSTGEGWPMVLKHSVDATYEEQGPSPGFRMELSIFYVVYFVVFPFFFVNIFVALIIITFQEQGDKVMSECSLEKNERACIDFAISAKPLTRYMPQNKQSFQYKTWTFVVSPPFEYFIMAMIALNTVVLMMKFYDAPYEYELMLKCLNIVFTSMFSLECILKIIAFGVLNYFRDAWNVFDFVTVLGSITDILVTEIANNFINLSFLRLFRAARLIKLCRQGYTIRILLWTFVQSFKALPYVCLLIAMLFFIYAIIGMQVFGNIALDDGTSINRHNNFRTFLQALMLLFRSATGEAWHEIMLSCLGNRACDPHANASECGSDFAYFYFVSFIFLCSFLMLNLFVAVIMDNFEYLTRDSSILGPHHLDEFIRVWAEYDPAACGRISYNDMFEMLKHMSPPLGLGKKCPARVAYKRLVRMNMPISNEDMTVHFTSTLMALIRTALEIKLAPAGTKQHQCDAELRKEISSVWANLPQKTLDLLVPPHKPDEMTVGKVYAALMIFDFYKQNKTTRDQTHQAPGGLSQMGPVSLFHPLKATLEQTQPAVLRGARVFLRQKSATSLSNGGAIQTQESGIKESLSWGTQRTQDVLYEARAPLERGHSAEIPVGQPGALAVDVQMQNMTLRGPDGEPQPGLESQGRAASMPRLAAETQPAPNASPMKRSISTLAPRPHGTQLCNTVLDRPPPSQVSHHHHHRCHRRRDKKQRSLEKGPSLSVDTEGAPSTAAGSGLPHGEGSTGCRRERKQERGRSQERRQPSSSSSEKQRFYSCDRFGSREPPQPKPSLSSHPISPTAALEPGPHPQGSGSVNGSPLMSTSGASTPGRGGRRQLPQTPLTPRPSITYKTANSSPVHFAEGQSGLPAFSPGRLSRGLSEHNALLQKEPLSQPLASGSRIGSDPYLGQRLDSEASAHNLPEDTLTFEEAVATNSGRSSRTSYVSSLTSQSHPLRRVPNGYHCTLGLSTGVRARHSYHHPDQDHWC

Sequence: CKSKGAKCDRLMYDCCSGSCSGTVGRC [D^9R^10-CVID]
- potency for N-type calcium channel in receptor binding assays: high potency
- selectivity for N-type calcium channel over P/Q-type calcium channel in receptor binding assays: high selectivity
